Data as given in patent publication US9603861B2, “Compositions and methods for treating hyperproliferative epidermal diseases” (DERMIPSOR LTD., priority 2005, dated 2017).

Legend:
[1] = Skin permeation, Franz diffusion cell; type: in vitro ADME, porcine; settings: formulations CP and CPNA, 12 hours; QL 1.3 ng/mL
Procedure: Three formulations were prepared. The first comprised Nicotinamide (NA, 2.1 mg/g), the second Calcipotriol (CP, 50 μg/g) and the third, a combination of Calcipotriol (50 μg/g) and Nicotinamide (2.1 mg/g)(CPNA).
The Franz cell assembly and porcine ear skin are used for measuring permeation of drugs through the skin in vitro from various systems and dosage forms (Dick et al. 1992; Simon, et al. 2000; Touitou et al. 1998; Chien 1992). The experiments were carried out in vitro using the Franz diffusion cell assembly and full-thickness skin from porcine ear. The diffusion cells are made from an inert material and the assembly allows for good receiver-fluid mixture and temperature control.
Porcine ear skin was excised from the outer part of the ear and separated from the underlying cartilage. The skin was stored frozen at −20° C. until use, always less than one week. […] A quantity of 100 mg test formulation was placed on 1.77 cm^2 skin in the donor compartment. […]
The experiments were run non-occluded for 12 hours. […] The samples were analyzed for Nicotinamide and Calcipotriol concentrations by HPLC as further described. […]
HPLC assays: The HPLC assays of nicotinamide and calcipotriol were carried as follows: Nicotinamide was analyzed in a Waters Alliance 2795 LC and Quattro Micro™ HPL chromotograph LC-MS system with Hypersil BDS C18, 3 μm, 150×2.1 mm (CN 28103-152130, batch #4796) column. […]

HaCat cells [2] = experiment: Cornified envelope formation; type: cell-based, human
Procedure: (§1) Cornified Envelope Formation: Late differentiation processes in HaCat cells treated with NA and or calcipotriol were measured by determining the cornified cell envelope formation, according to the procedures described in Sun and Green (1976) and PCT publication WO 01/51051.

A431 cells = experiment: Apoptosis in A431 cells; type: cell-based
KM12 = experiment: Proliferation assay, KM12 cells; type: cell-based; settings: NA in pharmacological concentrations, dose dependent
HaCat cells [3] = experiment: Apoptosis and necrosis by fluorescence microscopy; type: cell-based, human
Procedure: Estimation of apoptosis and necrosis was analyzed using fluorescence microscopy as previously described (Harel et al, 2002). Briefly, HaCat cells were cultured on glass slides and exposed to various concentration of NA (5, 10, 20 and 50 mM). After 72 h the cells were stained with the DNA binding dyes Hoechst 33342 and propidium iodide. Viable cells were identified by intact nuclei and their blue fluorescence, necrotic cells by intact nuclei and red fluorescence, and cells in early or late phase of apoptosis, by fragmented nuclei and blue or red fluorescence. At least one thousand cells were counted for each treatment.

PARP = experiment: Immunoblot analysis of PARP expression; type: cell-based, human
Procedure: Immunoblot analysis of PARP expression: immune complexes were detected by incubation with secondary anti-mouse alkaline phosphatase conjugated antibody AP124A (dilution 1:5000) followed by developing with BCIP/NBT color substrate.

involucrin = experiment: Indirect immunofluorescence, involucrin expression; type: cell-based, human
Procedure: (§2) Effects of NA and or calcipotriol on early (keratin k10 expression) and late (involucrin expression) differentiation processes in HaCat cells were estimated by indirect immunofluorescence.
(§3) In brief, 2×10^4 cells/ml were seeded on glass coverslips into Petri dishes with 0, 5, 10 and 20 mM NA or calcipotriol. After 72 hours of incubation, cells on the glass coverslips were washed with PBS, fixed by ice-cold mixture of methanol:acetone (1:1) and incubated at −20° C. for 10 minutes. Fixed cells were washed in PBS and incubated with blocking buffer (1% BSA in PBS) for 10 minutes, to minimize non-specific absorption of the primary antibodies to the coverslips. Thereafter, the cells were incubated for 1 hour with primary monoclonal antibodies (Keratin 10 expression was detected by antihuman mouse monoclonal antibody, at 1/50 final dilution; Involucrin expression was detected by antihuman involucrin mouse monoclonal antibody at 1/100 final dilution), at 37° C. hour in a humidified chamber. Exhaustive, PBS-washed cells were incubated with fluorophor conjugated goat anti-mouse IgG, at 1/50 final dilution, for 30 minutes at room temperature. The slides were viewed under a Zeiss microscope (Axioskop-2) equipped with epifluorescence optics and the appropriate filters to avoid cross-channel contamination. The level of keratin 10 and involucrin expression was estimated by counting the positive cells relative to the total cell number. On each slide, at least 500-1000 cells were scored.

keratin 10 (K10) = experiment: Indirect immunofluorescence, keratin 10 expression; type: cell-based, human; settings: 72 hours
Procedure: as §2
as §3, with “The level of keratin 10 and involucrin expression was estimated by counting the positive cells relative to the total cell number.” left out

HaCat cells [4] = experiment: Cell cycle parameters by flow cytometry; type: cell-based, human; settings: NA 72 h, dose dependent
Procedure: Determination of apoptosis and cell cycle parameters was performed by flow cytometry. Cells were seeded in 25 cm2 tissue culture flasks and cultured for 48 h, and then they were exposed to 5, 10 and 20 mM NA for 72 h. Flow cytometry was performed on nuclei prepared with a detergent-trypsin method and stained with propidium iodide (Vindelov et al, 1983).

[5] = test system: human primary keratinocytes; experiment: Proliferation assay (MTT method), human primary keratinocytes; type: cell-based; settings: NA in pharmacological concentrations, dose dependent
Procedure: The antiproliferative activity of calcipotriol and nicotinamide was tested in two model systems: the first a spontaneously immortalized human keratinocyte, which is referred to herein as “HaCat cells” or “HaCat keratinocytes”, and serves as a model for highly proliferative epidermis, such as, but not limited to, psoriatic epidermis (Okenfels et al, 1998), and as a model for effects of external modulators of epidermal differentiation (Paramio, et al., 1997). The second system includes rapidly proliferating human keratinocytes, which are referred to herein as “cultured human epidermal keratinocytes”, and serves as a model for detecting antiproliferative agents in the treatment of psoriasis (Nikoloff, et al., 1988). Human Epidermal Keratinocytes (passages 3-6), obtained from normal face-lift surgery, were cultivated in serum-free KGM®-2 BulletKit® (Clonetics, USA) medium with low calcium for accelerated proliferation of the keratinocytes. The viability and/or proliferation of HaCat cells and Cultured Human Epidermal Keratinocytes, following treatment with various concentrations of calcipotriol, nicotinamide (NA) or a combination thereof was determined by the MTT assay, according manufacturer in 96-well microtiter plates.

HaCat keratinocytes = experiment: Long-term NA treatment of HaCat keratinocytes, oxidative stress; type: cell-based, human; settings: long-term treatment with NA
Description: Other long-term cultures of cells with other agents are similarly obtained by cultivating HaCat cells, for a prolonged period of time, in medium supplemented with combinations of NA, vitamin D and derivatives thereof and vitamin A.

A431 = experiment: Proliferation assay, A431 cells; type: cell-based; settings: NA in pharmacological concentrations, dose dependent
Procedure: (§4) Certain in vitro assays based on keratinocyte cell culture were performed to test NA and the combination of NA and calcipotriol. The experimental design has been described in PCT Patent Publication WO 01/51051, of some of the inventors of the present application.

[6] = test system: benign and malignant epidermal cells; experiment: Differentiation markers in benign and malignant epidermal cells; type: cell-based
Procedure: as §4, §1, §2

HaCat cells [7] = experiment: Proliferation assay (MTT method), HaCat cells; type: cell-based, human
Procedure: The antiproliferative activity of calcipotriol and nicotinamide was tested in two model systems: the first a spontaneously immortalized human keratinocyte, which is referred to herein as “HaCat cells” or “HaCat keratinocytes”, and serves as a model for highly proliferative epidermis, such as, but not limited to, psoriatic epidermis (Okenfels et al, 1998), and as a model for effects of external modulators of epidermal differentiation (Paramio, et al., 1997). The second system includes rapidly proliferating human keratinocytes, which are referred to herein as “cultured human epidermal keratinocytes”, and serves as a model for detecting antiproliferative agents in the treatment of psoriasis (Nikoloff, et al., 1988). These models have been used, according to the present invention, to test the antiproliferative efficacy of agents described herein. […] The viability and/or proliferation of HaCat cells and Cultured Human Epidermal Keratinocytes, following treatment with various concentrations of calcipotriol, nicotinamide (NA) or a combination thereof was determined by the MTT assay, according manufacturer in 96-well microtiter plates.

HaCat cells [8] = experiment: Growth curve and mitotic activity; type: cell-based, human; settings: 10 mM NA
Procedure: Growth curve and mitotic activity: 2×10^4 cells per ml were seeded in 24-well tissue culture plates and incubated without or with 10 mM NA. The cells were detached by trypsinization at different times (48 h-168 h) following passage and counted using a haemocytometer in tetra-aliquots. For estimation of mitotic activity the cells were cultured on glass coverslips into Petri dishes. After 72 h incubation with or without 10 mM NA the cells were fixed with methanol, stained with Giemsa stain and analyzed by light microscopy. Frequency of mitotic cells at different stages of mitotic cycle (pro-, meta-, ana- and telophases) was calculated. At least 1000 cells were counted for each experiment.

C=C1/C(=C\C=C2/CCC[C@]3(C)[C@@H]([C@H](C)/C=C/[C@@H](O)C4CC4)CC[C@@H]23)C[C@@H](O)C[C@@H]1O [calcipotriol, Calcipotriol]
calcipotriol in the receiver compartment [1]: No calcipotriol was detected

NC(=O)c1cccnc1 [NA, Nicotinamide]
frequency of basal and cornified envelope cells (HaCat cells [2]; 5 mM or 10 mM NA): no statistically significant effect | cornified envelope cell formation (HaCat cells [2]; 15 mM NA): increased | level of basal cells (HaCat cells [2]; 15 mM NA, untreated 58.6±10.24%): 25.6±5.76% | frequency of basal cells, of total cell population (HaCat cells [2]; 20 mM NA): about 15% | frequency of envelope cornified cells, of total cell population (HaCat cells [2]; 20 mM NA, untreated 4.4±2.78%): about 15% | apoptotic death in A431 cells (A431 cells): does not induce apoptotic death | Proliferation of KM12 (KM12): significantly inhibited | apoptotic death in HaCat cells (summary statement) (HaCat cells [3]): does not induce apoptotic death | apoptogenic effect (HaCat cells [3]; 20 mM and 50 mM NA, 72 h): significant apoptogenic effect | cells in stage of early apoptosis (HaCat cells [3]; 50 mM NA): 9% | effected cells with signs of late apoptosis (HaCat cells [3]; 50 mM NA): about 91% | necrotic cell death (HaCat cells [3]; all tested NA concentrations (5-50 mM)): no tested concentration of NA induced necrotic cell death | PARP expression (Western blot) (PARP; 10 mM or 20 mM NA): express a basal level of undegraded 116 kDa PARP full protein | PARP expression (Western blot) (PARP; 50 mM NA, 85 kDa cleavage fragment appears): induced degradation of PARP | increase of involucrin expression vs control (involucrin; 5 mM NA): about 2 times | level of involucrin expression (positive cells) (involucrin; 5 mM NA, control 6.0±1.22%): 11.2±1.68% | frequency of involucrin positive cells (involucrin; 10 mM NA): 11.0±1.13% | frequency of involucrin positive cells (involucrin; 20 mM NA): 15.1±3.93% | K10 expression compared to control cells (keratin 10 (K10); 5 mM to 10 mM NA): no effect | stimulation of K10 expression (keratin 10 (K10); 20 mM NA): 3 fold | frequency of cells in G0-G1, S and G2-M phases (HaCat cells [4]): reduction of the cell number in S and G2-M-phases | Proliferation of human primary keratinocytes [5]: significantly inhibited | anti-oxidative enzymes (glutathione peroxidase and catalase) (HaCat keratinocytes): high levels of anti-oxidative enzymes | protection to oxidative stress (hydrogen peroxide) (HaCat keratinocytes): high level of protection to oxidative stress | Proliferation of A431 (A431): significantly inhibited | differentiation processes: K10, Involucrin, enveloped cornified cell formation markers [6]: promotes the differentiation processes | rate of HaCat cell proliferation (HaCat cells [7]; 0.5-5 mM NA, 72 h): did not change the rate of HaCat cell proliferation | Proliferation of HaCat keratinocytes (HaCat cells [7]; NA in pharmacological concentrations, dose dependent): significantly inhibited | growth curve (HaCat cells [8]; 48-168 hours): growth retardation | percentage of mitotic cells, times lower compared to untreated (HaCat cells [8]; 72 h): about 2.5 times
